Values quoted from earlier work in patent publication US7652024B2, “Acylated spiropiperidine derivatives as melanocortin-4 receptor modulators” (Merck Sharp & Dohme Corp., priority 2005, dated 2010).

Test system: erectile dysfunction patients

Compound: CCCc1nn(C)c2c(=O)[nH]c(-c3cc(S(=O)(=O)N4CCN(C)CC4)ccc3OCC)nc12 [Sildenafil, sildenafil]
- effective in share of patients: about 70%
